Experiments:
[1] = Inhibition of rat small intestinal brush border membrane cellobiase assessed as reduction in production of D-glucose using disaccharides as substrate incubated for 10 to 30 mins
[2] = Inhibition of almond beta-glucosidase assessed as reduction in production of D-glucose using disaccharides as substrate incubated for 10 to 30 mins; set-up: species or system Prunus dulcis
[3] = Inhibition of rice alpha-glucosidase assessed as reduction in production of D-glucose using disaccharides as substrate incubated for 10 to 30 mins; set-up: species or system Oryza sativa
[4] = Inhibition of rat small intestinal brush border membrane maltase assessed as reduction in production of D-glucose using maltose as substrate incubated for 10 to 30 mins
[5] = target: T1, Sucrase-isomaltase, intestinal (Rattus norvegicus, UniProt P23739); test: Inhibition of rat small intestinal brush border membrane sucrase assessed as reduction in production of D-glucose using disaccharides as substrate incubated for 10 to 30 mins
[6] = target: T1, Sucrase-isomaltase, intestinal; test: Inhibition of rat small intestinal brush border membrane isomaltase assessed as reduction in production of D-glucose using disaccharides as substrate incubated for 10 to 30 mins

T1 sequence (P23739 1-1013 limits assumed): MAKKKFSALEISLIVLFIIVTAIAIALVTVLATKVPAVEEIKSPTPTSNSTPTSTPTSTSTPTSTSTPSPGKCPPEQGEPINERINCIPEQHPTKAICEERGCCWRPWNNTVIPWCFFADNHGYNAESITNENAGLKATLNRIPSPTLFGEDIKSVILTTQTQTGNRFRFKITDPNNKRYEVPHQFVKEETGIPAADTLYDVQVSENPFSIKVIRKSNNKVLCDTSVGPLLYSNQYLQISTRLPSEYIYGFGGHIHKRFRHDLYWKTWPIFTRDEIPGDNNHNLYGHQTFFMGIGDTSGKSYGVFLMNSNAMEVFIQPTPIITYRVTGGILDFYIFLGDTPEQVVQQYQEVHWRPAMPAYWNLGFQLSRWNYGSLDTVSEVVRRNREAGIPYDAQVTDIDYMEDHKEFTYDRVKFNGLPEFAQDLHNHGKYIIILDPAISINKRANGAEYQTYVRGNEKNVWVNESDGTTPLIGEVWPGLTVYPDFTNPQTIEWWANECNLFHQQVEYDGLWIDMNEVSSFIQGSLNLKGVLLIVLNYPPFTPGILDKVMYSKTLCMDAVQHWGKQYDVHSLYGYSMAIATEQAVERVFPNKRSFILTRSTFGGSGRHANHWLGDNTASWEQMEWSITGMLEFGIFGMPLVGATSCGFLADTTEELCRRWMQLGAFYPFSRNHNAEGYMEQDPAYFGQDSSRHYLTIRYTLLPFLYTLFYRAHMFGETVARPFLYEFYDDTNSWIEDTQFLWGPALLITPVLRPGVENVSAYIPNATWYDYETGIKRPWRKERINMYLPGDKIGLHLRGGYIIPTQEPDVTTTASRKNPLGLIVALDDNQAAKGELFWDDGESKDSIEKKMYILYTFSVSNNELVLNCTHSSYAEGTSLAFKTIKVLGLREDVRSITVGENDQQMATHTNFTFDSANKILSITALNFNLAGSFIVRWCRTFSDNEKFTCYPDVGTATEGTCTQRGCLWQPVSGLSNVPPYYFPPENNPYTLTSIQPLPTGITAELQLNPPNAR
T1 sequence (P23739 1014-1841 limits assumed): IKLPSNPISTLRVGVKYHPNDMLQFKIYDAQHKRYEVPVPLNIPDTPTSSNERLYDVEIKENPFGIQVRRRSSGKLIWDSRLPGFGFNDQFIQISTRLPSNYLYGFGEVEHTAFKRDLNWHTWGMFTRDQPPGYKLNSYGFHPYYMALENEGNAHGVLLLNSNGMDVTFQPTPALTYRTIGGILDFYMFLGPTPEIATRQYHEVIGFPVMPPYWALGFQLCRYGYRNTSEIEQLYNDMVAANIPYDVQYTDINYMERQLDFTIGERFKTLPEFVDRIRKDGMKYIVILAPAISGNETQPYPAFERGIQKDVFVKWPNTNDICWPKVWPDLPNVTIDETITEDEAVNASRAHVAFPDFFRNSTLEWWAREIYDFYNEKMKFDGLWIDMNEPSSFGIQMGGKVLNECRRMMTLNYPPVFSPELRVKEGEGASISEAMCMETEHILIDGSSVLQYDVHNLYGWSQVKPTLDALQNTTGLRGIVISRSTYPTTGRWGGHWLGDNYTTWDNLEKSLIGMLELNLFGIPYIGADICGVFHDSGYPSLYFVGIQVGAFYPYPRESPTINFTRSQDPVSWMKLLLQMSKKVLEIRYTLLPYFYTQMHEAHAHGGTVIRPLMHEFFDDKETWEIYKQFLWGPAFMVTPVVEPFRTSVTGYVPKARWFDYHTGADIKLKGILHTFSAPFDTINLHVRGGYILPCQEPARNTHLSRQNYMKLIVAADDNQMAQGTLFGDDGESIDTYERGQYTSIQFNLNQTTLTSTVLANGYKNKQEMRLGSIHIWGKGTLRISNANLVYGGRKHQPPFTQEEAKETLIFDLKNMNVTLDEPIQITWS

IC50 [1] [nM]	IC50 [2] [nM]	IC50 [3] [nM]	IC50 [4] [nM]	IC50 [5] [nM]	IC50 [6] [nM]	SMILES
327000	85000	50				OC[C@H]1NC[C@H](O)[C@@H](O)[C@@H]1O [DUVOGLUSTAT]
219000	3800	57	540	950	4100	O=c1cc(C(F)(F)F)c2ccc(OCCCCn3cc(CCCCN4C[C@H](O)[C@@H](O)[C@H](O)[C@H]4CO)nn3)cc2o1
175000		2100	650	2700	6300	O=c1ccc2nc3ccc(OCCCCn4cc(CCCCN5C[C@H](O)[C@@H](O)[C@H](O)[C@H]5CO)nn4)cc3oc-2c1
304000		110	100	1400	13600	CCN(CC)c1ccc2cc(C(=O)NCCOCCOCCOCCn3cc(CCCCN4C[C@H](O)[C@@H](O)[C@H](O)[C@H]4CO)nn3)c(=O)oc2c1
53600	9300	42	150	540	1400	Cc1cc(=O)oc2cc(OCCCCn3cc(CCCCN4C[C@H](O)[C@@H](O)[C@H](O)[C@H]4CO)nn3)ccc12
414000	97800	91	910	1900	4600	CN(C)c1cccc2c(S(=O)(=O)NCCOCCn3cc(CCCCN4C[C@H](O)[C@@H](O)[C@H](O)[C@H]4CO)nn3)cccc12
164000	378000	99	590			OCCN1C[C@H](O)[C@@H](O)[C@H](O)[C@H]1CO [MIGLITOL]

Reference: ChEMBL document CHEMBL3872266, “Synthesis and characterization of novel, conjugated, fluorescent DNJ derivatives for α-glucosidase recognition” (Bioorg Med Chem, 2017)
